Experimental data from patent publication US9216999B2, “Substituted pyrrolo[2,3-h][1,6]naphthyridines and compositions thereof as JAK inhibitors” (priority 2011, dated 2015).
Where a name gives a salt, the structure may show the parent alone. Read-outs that look alike come from different tables or passages of the source.

Columns and labels:
Assay type in all cases: biochemical
JAK1 = JAK1 (Homo sapiens (Human), UniProt P23458); experiment: Enzyme assay (Assay Example^a 1), JAK1; conditions: ATP 100 μM
JAK2 = JAK2 (Homo sapiens (Human), UniProt O60674); experiment: Enzyme assay (Assay Example^a 1), JAK2; conditions: ATP 100 μM
JAK3 = JAK3 (Homo sapiens (Human), UniProt P52333); experiment: Enzyme assay (Assay Example^a 1), JAK3
Tyk2 = Tyk2 (Homo sapiens (Human), UniProt P29597); experiment: Enzyme assay (Assay Example^a 1), Tyk2; conditions: ATP 100 μM
Sequence of Tyk2 (P29597 whole entry): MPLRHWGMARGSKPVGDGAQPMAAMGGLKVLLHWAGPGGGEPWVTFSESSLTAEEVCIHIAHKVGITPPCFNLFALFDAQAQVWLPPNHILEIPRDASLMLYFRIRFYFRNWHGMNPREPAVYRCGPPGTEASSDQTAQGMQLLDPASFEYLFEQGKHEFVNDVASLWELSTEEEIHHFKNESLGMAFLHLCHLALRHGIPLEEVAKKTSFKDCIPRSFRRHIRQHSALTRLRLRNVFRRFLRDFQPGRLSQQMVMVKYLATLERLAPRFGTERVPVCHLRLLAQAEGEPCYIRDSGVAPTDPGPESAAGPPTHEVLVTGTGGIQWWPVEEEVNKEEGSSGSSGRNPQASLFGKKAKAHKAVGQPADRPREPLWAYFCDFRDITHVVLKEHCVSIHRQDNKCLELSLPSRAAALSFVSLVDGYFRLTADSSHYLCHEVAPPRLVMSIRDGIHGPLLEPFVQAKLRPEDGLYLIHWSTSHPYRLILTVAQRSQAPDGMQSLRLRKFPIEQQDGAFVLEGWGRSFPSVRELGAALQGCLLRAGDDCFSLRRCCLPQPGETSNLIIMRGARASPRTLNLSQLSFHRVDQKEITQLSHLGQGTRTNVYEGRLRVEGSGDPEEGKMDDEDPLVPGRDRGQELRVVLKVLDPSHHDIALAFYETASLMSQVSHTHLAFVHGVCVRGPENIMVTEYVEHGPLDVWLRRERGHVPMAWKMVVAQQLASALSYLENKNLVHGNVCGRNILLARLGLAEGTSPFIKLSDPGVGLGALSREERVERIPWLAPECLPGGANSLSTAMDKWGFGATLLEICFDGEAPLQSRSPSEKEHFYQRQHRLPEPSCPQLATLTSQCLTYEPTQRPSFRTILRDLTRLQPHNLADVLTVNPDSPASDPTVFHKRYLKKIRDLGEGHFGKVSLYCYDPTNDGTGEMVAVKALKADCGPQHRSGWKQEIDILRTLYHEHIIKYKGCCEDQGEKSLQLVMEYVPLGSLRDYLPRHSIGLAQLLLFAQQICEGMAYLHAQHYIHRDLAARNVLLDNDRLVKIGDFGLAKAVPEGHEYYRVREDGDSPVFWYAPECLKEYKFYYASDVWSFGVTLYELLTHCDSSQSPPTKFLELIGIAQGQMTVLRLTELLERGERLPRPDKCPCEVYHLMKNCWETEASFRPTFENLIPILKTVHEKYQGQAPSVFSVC

Sequence of JAK3 (P52333 whole entry): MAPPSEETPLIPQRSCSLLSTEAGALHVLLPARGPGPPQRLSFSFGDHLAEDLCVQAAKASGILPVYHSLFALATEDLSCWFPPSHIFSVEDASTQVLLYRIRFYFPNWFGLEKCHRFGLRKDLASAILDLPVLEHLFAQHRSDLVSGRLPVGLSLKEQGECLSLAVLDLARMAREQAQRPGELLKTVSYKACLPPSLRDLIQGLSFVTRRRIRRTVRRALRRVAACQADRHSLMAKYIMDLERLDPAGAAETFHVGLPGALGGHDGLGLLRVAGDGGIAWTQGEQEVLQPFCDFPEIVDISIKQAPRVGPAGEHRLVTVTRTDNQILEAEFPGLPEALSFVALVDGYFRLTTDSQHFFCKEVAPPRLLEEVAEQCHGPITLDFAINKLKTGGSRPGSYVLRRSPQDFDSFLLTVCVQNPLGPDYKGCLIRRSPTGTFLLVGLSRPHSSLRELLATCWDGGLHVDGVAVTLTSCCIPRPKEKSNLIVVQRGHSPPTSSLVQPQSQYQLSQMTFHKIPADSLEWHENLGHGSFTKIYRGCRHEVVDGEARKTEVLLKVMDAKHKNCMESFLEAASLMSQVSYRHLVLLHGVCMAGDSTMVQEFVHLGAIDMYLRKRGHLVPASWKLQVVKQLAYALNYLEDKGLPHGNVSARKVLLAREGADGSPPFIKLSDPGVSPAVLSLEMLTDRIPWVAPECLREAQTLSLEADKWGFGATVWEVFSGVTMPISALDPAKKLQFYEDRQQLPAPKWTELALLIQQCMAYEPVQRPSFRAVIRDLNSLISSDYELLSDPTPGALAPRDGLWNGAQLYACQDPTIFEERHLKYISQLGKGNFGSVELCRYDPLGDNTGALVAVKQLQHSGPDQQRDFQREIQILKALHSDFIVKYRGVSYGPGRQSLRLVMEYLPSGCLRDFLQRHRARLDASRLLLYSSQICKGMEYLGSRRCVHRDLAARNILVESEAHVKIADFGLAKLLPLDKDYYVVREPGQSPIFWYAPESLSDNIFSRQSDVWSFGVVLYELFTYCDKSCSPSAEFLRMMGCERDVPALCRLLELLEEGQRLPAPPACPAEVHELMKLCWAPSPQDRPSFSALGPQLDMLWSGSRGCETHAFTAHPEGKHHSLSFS

IC50 (JAK1) | IC50 (JAK2) | IC50 (JAK3; ATP 100 μM) | IC50 (Tyk2) | Structure (SMILES) | IC50 (JAK1; Table^a 154) | IC50 (JAK2; Table^a 154) | IC50 (JAK3; ATP 100 μM, Table^a 154) | IC50 (Tyk2; Table^a 154) | IC50 (JAK3)
– | – | – | – | Fc1ccc(CN2CCC(c3nnn4cnc5[nH]ccc5c34)CC2)nc1 [compound 162, 1-{1-[(5-fluoropyridin-2-yl)methyl]piperidin-4-yl}-7H-pyrrolo[3,2-e][1,2,3]triazolo[1,5-c]pyrimidine] | 0.032 µM | 0.2 µM | 0.68 µM | > 1 µM | –
0.0043 µM | 0.0084 µM | 0.33 µM | 0.17 µM | CN(C)S(=O)(=O)C[C@H]1CC[C@H](c2nnn3cnc4[nH]ccc4c23)CC1 [compound 418, 1-[trans-4-(7H-pyrrolo[3,2-e][1,2,3]triazolo[1,5-c]pyrimidin-1-yl)cyclohexyl]-N,N-dimethylmethanesulfonamide] | – | – | – | – | –
0.0024 µM | 0.012 µM | 0.24 µM | 0.79 µM | Clc1ccc(C2(NC[C@H]3CC[C@H](c4nnn5cnc6[nH]ccc6c45)CC3)COC2)cc1 [compound 308, N-{[trans-4-(7H-pyrrolo[3,2-e][1,2,3]triazolo[1,5-c]pyrimidin-1-yl)cyclohexyl]methyl}-3-(4-chlorophenyl)oxetan-3-amine] | – | – | – | – | –
0.0034 µM | 0.0073 µM | 0.31 µM | 0.13 µM | N#CCC(=O)N(CC(F)(F)F)C[C@H]1CC[C@H](c2nnn3cnc4[nH]ccc4c23)CC1 [compound 407, N-{[trans-4-(7H-Pyrrolo[3,2-e][1,2,3]triazolo[1,5-c]pyrimidin-1-yl)cyclohexyl]methyl}-2-cyano-N-(2,2,2-trifluoroethyl)acetamide] | – | – | – | – | –
0.0074 µM | 0.044 µM | 0.53 µM | 0.2 µM | O=C1OCCC1NC[C@H]1CC[C@H](c2nnn3cnc4[nH]ccc4c23)CC1 (stereo partly drawn) [compound 279, 3-({[trans-4-(7H-pyrrolo[3,2-e][1,2,3]triazolo[1,5-c]pyrimidin-1-yl)cyclohexyl]methyl}amino)dihydrofuran-2(3H)-one] | – | – | – | – | –
– | – | – | – | Fc1ccc(CN2CCC(c3nnn4cnc5[nH]ccc5c34)CC2)c(F)c1 [compound 164, 1-[1-(2,4-difluorobenzyl)piperidin-4-yl]-7H-pyrrolo[3,2-e][1,2,3]triazolo[1,5-c]pyrimidine] | 0.0058 µM | 0.03 µM | 0.23 µM | 0.29 µM | –
– | – | – | – | c1nc(CCNC[C@H]2CC[C@H](c3nnn4cnc5[nH]ccc5c34)CC2)c[nH]1 [compound 192, N-{[trans-4-(7H-pyrrolo[3,2-e][1,2,3]triazolo[1,5-c]pyrimidin-1-yl)cyclohexyl]methyl}-2-(1H-imidazol-4-yl)ethanamine hydrochloride] | 0.0039 µM | 0.038 µM | 0.32 µM | 0.1 µM | –
0.0015 µM | 0.01 µM | 0.41 µM | > 1 µM | Brc1csc(CN2CCC(c3nnn4cnc5[nH]ccc5c34)CC2)c1 [compound 237, 1-{1-[(4-bromothiophen-2-yl)methyl]piperidin-4-yl}-7H-pyrrolo[3,2-e][1,2,3]triazolo[1,5-c]pyrimidine] | – | – | – | – | –
– | – | – | – | N#Cc1ccc(CN[C@H]2CC[C@H](c3nnn4cnc5[nH]ccc5c34)CC2)cc1 [137b] | 0.0041 µM | 0.039 µM | 0.38 µM | 0.088 µM | –
– | – | – | – | FC(F)(F)c1ccc(CN[C@H]2CC[C@@H](c3nnn4cnc5[nH]ccc5c34)CC2)cc1 [138a] | 0.023 µM | 0.74 µM | > 1 µM | 0.25 µM | –
0.0025 µM | 0.021 µM | 0.079 µM | 0.57 µM | FC1(F)Oc2ccc(CN3CCC(c4nnn5cnc6[nH]ccc6c45)CC3)cc2O1 [compound 227, 1-{1-[(2,2-Difluorobenzo[d][1,3]dioxol-5-yl)methyl]piperidin-4-yl}-7H-pyrrolo[3,2-e][1,2,3]triazolo[1,5-c]pyrimidine] | – | – | – | – | –
0.0052 µM | 0.013 µM | 0.22 µM | 0.31 µM | N#CCC(=O)N(CC#N)C[C@H]1CC[C@H](c2nnn3cnc4[nH]ccc4c23)CC1 [compound 408, N-{[trans-4-(7H-pyrrolo[3,2-e][1,2,3]triazolo[1,5-c]pyrimidin-1-yl)cyclohexyl]methyl}-2-cyano-N-(cyanomethyl)acetamide] | – | – | – | – | –
– | – | – | – | c1ccc(CCCN[C@H]2CC[C@H](c3nnn4cnc5[nH]ccc5c34)CC2)cc1 [136b] | 0.016 µM | 0.29 µM | > 1 µM | 0.45 µM | –
0.025 µM | 0.16 µM | > 1 µM | 0.94 µM | CC(C)(O)C1CCN(C[C@H]2CC[C@H](c3nnn4cnc5[nH]ccc5c34)CC2)CC1 [compound 311, 2-(1-{[trans-4-(7H-pyrrolo[3,2-e][1,2,3]triazolo[1,5-c]pyrimidin-1-yl)cyclohexyl]methyl}piperidin-4-yl)propan-2-ol] | – | – | – | – | –
– | – | – | – | N#CC1CCN(C[C@H]2CC[C@H](c3nnn4cnc5[nH]ccc5c34)CC2)CC1 [compound 89] | 0.025 µM | 0.2 µM | > 1 µM | 0.61 µM | –
0.0019 µM | 0.032 µM | 0.12 µM | 0.18 µM | COc1ccc(C(O)(CN[C@H]2CC[C@H](c3nnn4cnc5[nH]ccc5c34)CC2)C(F)(F)F)cn1 (stereo partly drawn) [387b, 3-{[trans-4-(7H-pyrrolo[3,2-e][1,2,3]triazolo[1,5-c]pyrimidin-1-yl)cyclohexyl]amino}-1,1,1-trifluoro-2-(6-methoxypyridin-3-yl)propan-2-ol] | – | – | – | – | –

Structure (SMILES) | IC50 (JAK1) | IC50 (JAK2) | IC50 (JAK3; ATP 100 μM) | IC50 (Tyk2) | IC50 (JAK1; Table^a 154) | IC50 (JAK2; Table^a 154) | IC50 (JAK3; ATP 100 μM, Table^a 154) | IC50 (Tyk2; Table^a 154) | IC50 (JAK3)
N#CCNC(=O)C[C@H]1CC[C@@H](c2nnn3cnc4[nH]ccc4c23)CC1 [443a, 2-[cis-4-(7H-Pyrrolo[3,2-e][1,2,3]triazolo[1,5-c]pyrimidin-1-yl)cyclohexyl]-N-(cyanomethyl)acetamide] | 0.026 µM | 0.06 µM | 0.73 µM | 0.54 µM | – | – | – | – | –
N#Cc1cc(NC[C@H]2CC[C@H](c3nnn4cnc5[nH]ccc5c34)CC2)ccc1F [compound 252, 5-({[trans-4-(7H-pyrrolo[3,2-e][1,2,3]triazolo[1,5-c]pyrimidin-1-yl)cyclohexyl]methyl}amino)-2-fluorobenzonitrile] | 0.017 µM | 0.06 µM | > 1 µM | > 1 µM | – | – | – | – | –
O[C@H]1CCCC[C@H]1CNC[C@H]1CC[C@H](c2nnn3cnc4[nH]ccc4c23)CC1 (relative stereo) [compound 312, cis-2-[({[trans-4-(7H-pyrrolo[3,2-e][1,2,3]triazolo[1,5-c]pyrimidin-1-yl)cyclohexyl]methyl}amino)methyl]cyclohexanol] | 0.012 µM | 0.045 µM | > 1 µM | 0.37 µM | – | – | – | – | –
Brc1cc(CN2CCC(c3nnn4cnc5[nH]ccc5c34)CC2)sc1Br [compound 233, 1-{1-[(4,5-dibromothiophen-2-yl)methyl]piperidin-4-yl}-7H-pyrrolo[3,2-e][1,2,3]triazolo[1,5-c]pyrimidine] | 0.021 µM | 0.071 µM | – | > 1 µM | – | – | – | – | > 1 µM
Fc1ccc(NC[C@H]2CC[C@H](c3nnn4cnc5[nH]ccc5c34)CC2)cc1C(F)(F)F [compound 251, N-{[trans-4-(7H-pyrrolo[3,2-e][1,2,3]triazolo[1,5-c]pyrimidin-1-yl)cyclohexyl]methyl}-4-fluoro-3-(trifluoromethyl)aniline] | 0.031 µM | 0.2 µM | > 1 µM | > 1 µM | – | – | – | – | –
